Measurements: patent US20260007684A1, “AMIDE DERIVATIVES FOR INHIBITING NLRP3 AND USES THEREOF” (Ventus Therapeutics U.S., Inc., priority 2023, published 2026)
Where two headings read alike, the source gives them in different places.

Legend:
mouse NLRP3 = mouse NLRP3 (Mus musculus (Mouse), UniProt Q8R4B8); test: Mouse Whole Blood (mWB) NLRP3 Assay (LPS/ATP, IL-1b); format: cell-based
Procedure: Reagents: The following reagents were used: blood collection tubes (Heparin); U-bottom 96-well tissue culture (Falcon 353077); HBSS for LPS, ATP and compound dilutions (Gibco 24020-117); and LPS, E. coli serotype 026:B6 (Sigma L-2654).
Mouse IL-1b MSD assay: Blood was drawn from female CD1 mice (9 to 10 weeks) by cardiac puncture. Blood was plated (135 μL) per well in 96-well U-bottom plates. 7.5 μL of 20×LPS (20 μg/mL, final concentration of 1 μg/mL) was added and mixed by gentle pipetting, and the mixture was incubated in a TC incubator for five hours. 7.5 μL of 20× compound or vehicle per well was added and mixed by gentle pipetting. Compounds were diluted 1/50 in HBSS to prepare a 20× dilution curve in […].
The mixture was incubated for 30 minutes in a TC incubator with shaking (450 rpm). 5 μl of 31×ATP (155 mM, final concentration of 5 mM) was added and mixed by gentle pipetting. The mixture was incubated in a TC incubator for 30 minutes with shaking (450 rpm). The plate was centrifuged for 10 minutes at 800×g and −70 μL of plasma was removed. Plasma was frozen if required. Mouse IL-1b was analyzed with IL-1b MSD assay (K152TUK).
Compounds were added 30 minutes before priming the cells with LPS when TNFα was required to be quantified in the cytokine panel to confirm selectivity.

human NLRP3 [1] = molecular target: T1, human NLRP3 (Homo sapiens (Human), UniProt Q96P20); test: Scintillation Proximity (SPA) NLRP3 Assay: displacement of 3H-MCC950; format: binding; settings: for IC50: read-out: SPA IC50
human NLRP3 [2] = molecular target: T1, human NLRP3; test: Human PBMC NLRP3 Assay (LPS priming, ATP stimulation, cytokine measurement); format: cell-based
human NLRP3 [3] = molecular target: T1, human NLRP3; test: Human Whole Blood (hWB) NLRP3 Assay (LPS/ATP, IL-1β); format: cell-based
[4] = mouse whole blood, LPS/ATP, IL-1b
[5] = relative to Comparative Example A*
[6] = human PBMC, LPS priming, ATP stimulation, read-out: PBMC IC50
[7] = human whole blood, LPS/ATP, IL-1β, read-out: hWB IC50
[8] = PBMC IC50, human PBMC, LPS priming, ATP stimulation
[9] = hWB IC50, human whole blood, LPS/ATP, IL-1β

T1 sequence (Q96P20 whole entry): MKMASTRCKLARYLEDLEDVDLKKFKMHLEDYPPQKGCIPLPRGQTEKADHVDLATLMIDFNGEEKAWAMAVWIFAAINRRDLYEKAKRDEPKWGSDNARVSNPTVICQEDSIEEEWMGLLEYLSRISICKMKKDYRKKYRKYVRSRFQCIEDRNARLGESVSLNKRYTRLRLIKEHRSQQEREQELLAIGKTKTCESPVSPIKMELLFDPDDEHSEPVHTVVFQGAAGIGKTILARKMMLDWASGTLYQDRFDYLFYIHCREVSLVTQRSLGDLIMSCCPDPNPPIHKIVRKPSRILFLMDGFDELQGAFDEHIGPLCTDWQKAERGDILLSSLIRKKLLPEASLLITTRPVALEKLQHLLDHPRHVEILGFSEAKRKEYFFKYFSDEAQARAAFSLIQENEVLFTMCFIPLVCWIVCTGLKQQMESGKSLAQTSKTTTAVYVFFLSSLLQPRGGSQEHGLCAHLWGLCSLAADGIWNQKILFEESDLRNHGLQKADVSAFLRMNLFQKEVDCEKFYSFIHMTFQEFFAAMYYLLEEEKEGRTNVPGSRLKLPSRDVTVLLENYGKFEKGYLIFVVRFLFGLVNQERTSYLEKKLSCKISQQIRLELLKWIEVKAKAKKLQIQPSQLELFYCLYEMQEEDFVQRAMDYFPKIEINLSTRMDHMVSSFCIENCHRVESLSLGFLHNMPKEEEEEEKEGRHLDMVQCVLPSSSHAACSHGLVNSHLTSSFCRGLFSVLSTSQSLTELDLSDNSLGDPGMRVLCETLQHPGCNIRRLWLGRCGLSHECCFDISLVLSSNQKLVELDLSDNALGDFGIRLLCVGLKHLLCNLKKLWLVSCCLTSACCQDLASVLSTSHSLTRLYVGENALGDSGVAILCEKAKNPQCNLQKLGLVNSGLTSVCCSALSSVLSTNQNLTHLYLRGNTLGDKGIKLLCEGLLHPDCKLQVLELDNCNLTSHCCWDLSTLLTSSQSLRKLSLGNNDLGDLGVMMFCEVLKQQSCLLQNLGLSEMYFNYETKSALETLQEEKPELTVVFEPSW
Chain of mouse NLRP3 (Q8R4B8 whole entry): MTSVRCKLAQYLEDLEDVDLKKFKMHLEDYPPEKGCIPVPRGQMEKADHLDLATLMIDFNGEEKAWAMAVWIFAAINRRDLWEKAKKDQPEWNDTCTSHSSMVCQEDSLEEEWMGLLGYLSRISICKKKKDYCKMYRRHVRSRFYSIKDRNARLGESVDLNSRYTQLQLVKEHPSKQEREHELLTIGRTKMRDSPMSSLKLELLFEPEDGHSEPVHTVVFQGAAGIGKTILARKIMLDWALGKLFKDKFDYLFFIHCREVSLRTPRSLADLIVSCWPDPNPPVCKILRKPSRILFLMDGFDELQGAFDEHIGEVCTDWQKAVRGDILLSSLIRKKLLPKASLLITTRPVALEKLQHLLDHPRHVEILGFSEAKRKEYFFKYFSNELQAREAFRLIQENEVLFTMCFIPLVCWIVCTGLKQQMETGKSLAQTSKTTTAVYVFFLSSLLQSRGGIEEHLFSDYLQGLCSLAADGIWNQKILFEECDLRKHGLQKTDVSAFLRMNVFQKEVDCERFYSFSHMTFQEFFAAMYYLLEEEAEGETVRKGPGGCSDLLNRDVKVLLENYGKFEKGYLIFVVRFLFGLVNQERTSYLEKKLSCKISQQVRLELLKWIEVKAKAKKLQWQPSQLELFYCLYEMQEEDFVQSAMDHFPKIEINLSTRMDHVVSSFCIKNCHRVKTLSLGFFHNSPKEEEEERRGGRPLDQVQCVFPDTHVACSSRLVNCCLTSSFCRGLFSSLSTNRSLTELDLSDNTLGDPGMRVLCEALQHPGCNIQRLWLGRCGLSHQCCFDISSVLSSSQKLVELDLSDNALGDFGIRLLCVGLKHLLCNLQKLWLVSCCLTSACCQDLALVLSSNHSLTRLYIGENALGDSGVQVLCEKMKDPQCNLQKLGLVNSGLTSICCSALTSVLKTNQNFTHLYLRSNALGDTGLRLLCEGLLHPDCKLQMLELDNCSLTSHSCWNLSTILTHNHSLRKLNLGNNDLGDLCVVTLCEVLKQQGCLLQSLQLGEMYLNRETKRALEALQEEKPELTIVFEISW

IC50 (human NLRP3 [1]; displacement of 3H-MCC950) [µM] | IC50 (human NLRP3 [2]; [6]) [µM] | IC50 (human NLRP3 [3]; [7]) [µM] | Structure (SMILES) | also measured
1 to 10 | > 0.5 | > 3 | O=C(N[C@@H]1CCCN(c2nnn[nH]2)C1)C1(c2ccc(Cl)cc2)CC1 [Compound 10A, (R)-N-(1-(1H-tetrazol-5-yl)piperidin-3-yl)-1-(4-chlorophenyl)cyclopropane-1-carboxamide] | IC50 (mouse NLRP3): 1.9 µM; IC50 (mouse NLRP3; [4]): 1 to 2 µM; fold increase in potency as measured by mWB IC50 (mouse NLRP3; relative to Comparative Example B1): 26 fold; IC50 (human NLRP3 [1]): 9.5 µM; fold increase in binding activity (SPA IC50) (human NLRP3 [1]; [5]): > 40 fold; IC50 (human NLRP3 [2]; read-out: PBMC IC50): 2.1 µM; fold increase in potency as measured by PBMC IC50 (human NLRP3 [2]; relative to Comparative Example F): 4 fold; fold increase in potency as measured by PBMC IC50 (human NLRP3 [2]; relative to Comparative Example G): > 47 fold; fold increase in potency as measured by PBMC IC50 (human NLRP3 [2]; relative to Comparative Example H): 5 fold; fold increase in potency as measured by PBMC IC50 (human NLRP3 [2]; relative to Comparative Example J1): > 47 fold; fold increase in potency as measured by PBMC IC50 (human NLRP3 [2]; relative to Comparative Example J2): > 47 fold; IC50 (human NLRP3 [3]; read-out: hWB IC50): 7.3 µM; fold increase in potency as measured by hWB IC50 (human NLRP3 [3]; [5]): > 6 fold
< 1 | 0.01 to 0.1 | 2 to 3 | C[C@H]1C[C@@H](NC(=O)C2(c3ccc(Cl)cc3)CC2)CN(c2nnn[nH]2)C1 [Compound 46A, 1-(4-chlorophenyl)-N-((3R,5S)-5-methyl-1-(1H-tetrazol-5-yl)piperidin-3-yl)cyclopropane-1-carboxamide] | IC50 (mouse NLRP3): 0.17 µM; IC50 (mouse NLRP3; [4]): < 1 µM; fold increase in potency as measured by mWB IC50 (mouse NLRP3; relative to Compound 10A): 11 fold; IC50 (human NLRP3 [1]): 0.86 µM; fold increase in binding activity (SPA IC50) (human NLRP3 [1]; relative to Compound 10A): 11 fold; IC50 (human NLRP3 [2]; read-out: PBMC IC50): 0.1 µM; fold increase in potency as measured by PBMC IC50 (human NLRP3 [2]; relative to Compound 10A): 21 fold; IC50 (human NLRP3 [3]; read-out: hWB IC50): 2.5 µM; fold increase in potency as measured by hWB IC50 (human NLRP3 [3]; relative to Compound 10A): 3 fold
< 1 | 0.1 to 0.5 |  | C[C@H]1C[C@@H](NC(=O)C2(c3c(O)cc(C4CC4)cc3C(F)F)CC2)CN(c2nnn[nH]2)C1 (single isomer, unassigned) [97A*] | IC50 (mouse NLRP3; [4]): < 1 µM
 |  |  | O=C(Nc1cccc(-c2nnn[nH]2)c1)C1(c2ccc(Cl)cc2)CC1 [Comparative Example B1, N-(3-(1H-tetrazol-5-yl)phenyl)-1-(4-chlorophenyl)cyclopropane-1-carboxamide, reference compound] | IC50 (mouse NLRP3): > 50 µM; IC50 (human NLRP3 [1]): 8 µM; IC50 (human NLRP3 [2]; read-out: PBMC IC50): 0.48 µM
< 1 | < 0.01 | < 1 | C[C@@H]1CCN(c2nnn[nH]2)C[C@H](NC(=O)C2(c3ccc(Cl)c(F)c3O)CC2)C1 (single isomer, unassigned) [18A*, 1-(4-chloro-3-fluoro-2-hydroxyphenyl)-N-(5-methyl-1-(1H-tetrazol-5-yl)azepan-3-yl)cyclopropane-1-carboxamide] | 
< 1 | 0.01 to 0.1 | 1 to 2 | C[C@@H]1CCN(c2nnn[nH]2)C[C@@H](NC(=O)C2(c3ccc(OC(F)(F)F)cc3O)CC2)C1 (single isomer, unassigned) [62B*] | 
1 to 10 |  | 1 to 2 | O=C(N[C@@H]1CCCN(c2nnn[nH]2)C1)C1(c2ccc(Br)cc2)CC1 [Compound 39A, 1-(4-bromophenyl)-N-[(3R)-1-(1H-tetrazol-5-yl)-3-piperidyl]cyclopropanecarboxamide] | IC50 (mouse NLRP3; [4]): 1 to 2 µM
< 1 | < 0.01 | < 1 | C[C@@H]1CCN(c2nnn[nH]2)C[C@H](NC(=O)C2(c3ccc(Cl)cc3O)CC2)C1 (single isomer, unassigned) [60A*] | 
< 1 | 0.01 to 0.1 | < 1 | C[C@@H]1CCN(c2nnn[nH]2)C[C@H](NC(=O)C2(c3ccc(C(F)(F)F)cc3)CC2)C1 (single isomer, unassigned) [61A*] | 
< 1 |  | < 1 | O=C(N[C@H]1CN(c2nnn[nH]2)CCC(F)(F)C1)C1(c2ccc(Cl)cc2)CC1 (single isomer, unassigned) [53A*] | IC50 (mouse NLRP3; [4]): < 1 µM
< 1 | < 0.01 | < 1 | C[C@@H]1CCN(c2nnn[nH]2)C[C@H](NC(=O)C2(c3ccc(C(F)(F)F)c(F)c3)CC2)C1 (single isomer, unassigned) [66A*] | 
< 1 | < 0.01 | < 1 | Cc1ccc(C2(C(=O)N[C@@H]3C[C@H](C)CCN(c4nnn[nH]4)C3)CC2)c(O)c1F (single isomer, unassigned) [74A*] | 
1 to 10 |  | 2 to 3 | O=C(N[C@@H]1C[C@H](C(F)(F)F)CN(c2nnn[nH]2)C1)C1(c2ccc(Cl)cc2)CC1 [Compound 45A, 1-(4-chlorophenyl)-N-[(3R,5S)-1-(1H-tetrazol-5-yl)-5-(trifluoromethyl)-3-piperidyl]cyclopropanecarboxamide] | IC50 (mouse NLRP3; [4]): < 1 µM
< 1 | 0.01 to 0.1 | < 1 | C[C@@H]1CCN(c2nnn[nH]2)C[C@H](NC(=O)C2(c3ccc(OC(F)F)cc3)CC2)C1 (single isomer, unassigned) [58A*] | 
< 1 | 0.01 to 0.1 | < 1 | C[C@H]1C[C@@H](NC(=O)C2(c3ccc(C4CC4)cc3O)CC2)CN(c2nnn[nH]2)C1 [Compound 23A, 1-(4-cyclopropyl-2-hydroxyphenyl)-N-((3R,5S)-5-methyl-1-(1H-tetrazol-5-yl)piperidin-3-yl)cyclopropane-1-carboxamide] | 
< 1 | < 0.01 | 1 to 2 | C[C@@H]1CCN(c2nnn[nH]2)C[C@H](NC(=O)C2(c3ccc(Cl)cc3F)CC2)C1 (single isomer, unassigned) [56A*] | 
< 1 | 0.1 to 0.5 | > 3 | C[C@@H]1CCN(c2nnn[nH]2)C[C@H](NC(=O)C2(c3ccc(Cl)nc3O)CC2)C1 (single isomer, unassigned) [100A*] | 
< 1 | 0.1 to 0.5 | > 3 | C[C@H]1C[C@@H](NC(=O)C2(c3ncc(C(F)(F)F)cc3O)CC2)CN(c2nnn[nH]2)C1 [Compound 25A, 1-(3-hydroxy-5-(trifluoromethyl)pyridin-2-yl)-N-((3R,5S)-5-methyl-1-(1H-tetrazol-5-yl)piperidin-3-yl)cyclopropane-1-carboxamide] | 

Structure (SMILES) | IC50 (human NLRP3 [1]; displacement of 3H-MCC950) [µM] | IC50 (human NLRP3 [2]; [6]) [µM] | IC50 (human NLRP3 [3]; [7]) [µM] | also measured
C[C@@H]1C[C@@H](NC(=O)C2(c3ccc(C4CC4)cc3)CC2)[C@H]2CC[C@@H]1N2c1nnn[nH]1 [81A*, 1-(4-cyclopropylphenyl)-N-((1R,2R,4R,5S)-4-methy1-8-(1H-tetrazol-5-yl)-8-azabicyclo[3.2.1]octan-2-yl)cyclopropane-1-carboxamide] | < 1 |  |  | IC50 (human NLRP3 [2]; [8]): 0.01 to 0.1 µM; IC50 (human NLRP3 [3]; [9]): < 1 µM
O=C(N[C@@H]1CC[C@H]2CC[C@@H]1N2c1nnn[nH]1)C1(c2ccc(OC(F)(F)F)cc2O)CC1 [78C*, N-((1S,2R,5S)-8-(1H-tetrazol-5-yl)-8-azabicyclo[3.2.1]octan-2-yl)-1-(2-hydroxy-4-(trifluoromethoxy)phenyl)cyclopropane-1-carboxamide] | < 1 |  | 2 to 3 | IC50 (human NLRP3 [2]; [8]): 0.01 to 0.1 µM
O=C(N[C@@H]1CC[C@H]2CC[C@@H]1N2c1nnn[nH]1)C1(c2ccc(OC(F)F)cc2O)CC1 [77C*, N-((1S,2R,5S)-8-(1H-tetrazol-5-yl)-8-azabicyclo[3.2.1]octan-2-yl)-1-(4-(difluoromethoxy)-2-hydroxyphenyl)cyclopropane-1-carboxamide] | < 1 |  |  | IC50 (human NLRP3 [2]; [8]): 0.01 to 0.1 µM; IC50 (human NLRP3 [3]; [9]): < 1 µM
C[C@@H]1C[C@@H](NC(=O)C2(c3ccc(Cl)cc3)CC2)[C@H]2CC[C@@H]1N2c1nnn[nH]1 [80A*, 1-(4-chlorophenyl)-N-((1R,2R,4R,5S)-4-methyl-8-(1H-tetrazol-5-yl)-8-azabicyclo[3.2.1]octan-2-yl)cyclopropane-1-carboxamide] | < 1 |  |  | IC50 (human NLRP3 [1]): 0.13 µM; fold increase in binding activity (SPA IC50) (human NLRP3 [1]; relative to Compound 46A): 6.6 fold; IC50 (human NLRP3 [2]; PBMC IC50): 0.01 µM; IC50 (human NLRP3 [2]; [8]): 0.01 to 0.1 µM; fold increase in potency as measured by PBMC IC50 (human NLRP3 [2]; relative to Compound 46A): 10 fold; IC50 (human NLRP3 [3]; [9]): < 1 µM; IC50 (human NLRP3 [3]; read-out: hWB IC50): 0.84 µM; fold increase in potency as measured by hWB IC50 (human NLRP3 [3]; relative to Compound 46A): 3 fold
C[C@@H]1C[C@@H](NC(=O)C2(c3ccc(C(F)(F)F)cc3F)CC2)[C@H]2CC[C@@H]1N2c1nnn[nH]1 [84A*, 1-(2-fluoro-4-(trifluoromethyl)phenyl)-N-((1R,2R,4R,5S)-4-methyl-8-(1H-tetrazol-5-yl)-8-azabicyclo[3.2.1]octan-2-yl)cyclopropane-1-carboxamide] | < 1 |  |  | IC50 (human NLRP3 [2]; [8]): < 0.01 µM; IC50 (human NLRP3 [3]; [9]): < 1 µM
Cc1ccc(C2(C(=O)N[C@@H]3C[C@@H](C)[C@@H]4CC[C@H]3N4c3nnn[nH]3)CC2)cc1 [87A*, N-((1R,2R,4R,5S)-4-methy1-8-(1H-tetrazol-5-yl)-8-azabicyclo[3.2.1]octan-2-yl)-1-(p-tolyl)cyclopropane-1-carboxamide] | < 1 |  | 1 to 2 | IC50 (human NLRP3 [2]; [8]): 0.01 to 0.1 µM
